Converted amounts (≈) assume the structure as drawn. Like-named read-outs stand apart in the source and are kept apart here.
What was measured:
S. aureus ATCC 13709 = assay: MIC, S. aureus ATCC 13709; assay type: cell-based; conditions: for MIC: Staphylococcus aureus
E. coli ATCC 25922 = assay: MIC, E. coli ATCC 25922; assay type: cell-based; conditions: for MIC: Escherichia coli
[1] = S. aureus, Alamar Blue read after overnight incubation at 35° C.
[2] = E. coli, Alamar Blue read after overnight incubation at 35° C.
[3] = ATCC13709, S. aureus, Alamar Blue read after overnight incubation at 35° C., read-out: MIC Sa
[4] = ATCC25922, E. coli, Alamar Blue read after overnight incubation at 35° C., read-out: MIC Ec
[5] = ATCC13709, Table 16, new R4 substituents, read-out: SA MIC
[6] = ATCC25922, Table 16, new R4 substituents, EC8 not defined, read-out: EC8 MIC

Row | SMILES | MIC Sa (S. aureus ATCC 13709; [1]) | MIC Ec (E. coli ATCC 25922; [2]) | MIC (S. aureus ATCC 13709; [3]) | MIC (E. coli ATCC 25922; [4]) | also measured
1 | CNc1cc(F)c(C)c2c1[nH]c1nc(Oc3cnc(C)nc3)nc(NCCCN)c12 [Compound 6.21] | >16 µg/mL | >16 µg/mL | – | – | –
2 | CNc1cc(F)cc2c1[nH]c1nc(Oc3cnc(C)nc3)nc(N3C[C@@H]4C(N)CC(C)(C)[C@@H]4C3)c12 (stereo partly shown) [Compound 4.097] | ≤0.5 µg/mL | 2 µg/mL (≈ 4.2 µM) | – | – | –
3 | CNc1cc(F)cc2c1[nH]c1nc(Oc3ccc4ccnn4c3)nc(N3C[C@H]4C[C@@H](N)[C@H]4C3)c12 [Compound 10.53] | – | – | – | – | MIC Sa (S. aureus ATCC 13709; Table 18, Sa): ≤ 0.5 µg/mL; MIC Ec (E. coli ATCC 25922; Table 18, Ec): ≤ 0.5 µg/mL
4 | CNc1cc(F)cc2c1[nH]c1nc(Oc3cncc(C#N)c3)nc(N3CC4(CCC4N)C3)c12 (stereo not shown) [Compound 4.054] | ≤0.5 µg/mL | ≤0.5 µg/mL | – | – | –
5 | CNc1cccc2c1[nH]c1nc(Oc3cncc(C(=O)O)c3)cc(N3CC4C(N)C4C3)c12 (stereo not shown) [Compound 3.20] | – | – | > 8 µg/mL | > 8 µg/mL | –
6 | CNc1cc(F)cc2c1[nH]c1nc(Cc3cnc(C)nc3)nc(N3CC4C(N)C4C3)c12 (stereo not shown) [drawing 1737] | – | – | – | – | SA MIC (S. aureus ATCC 13709; Table 11, compounds wherein L = CH2): ≤ 0.5 µg/mL; EC8 MIC (E. coli ATCC 25922; Table 11, L = CH2, EC8 not defined): 0.25 µg/mL
7 | CNc1cc(F)c(F)c2c1[nH]c1nc(Oc3cnc(C)nc3)nc(N3CC4NCC[C@@H]4C3)c12 (stereo partly shown) [Compound 10.32] | – | – | – | – | MIC Sa (S. aureus ATCC 13709; Table 18, Sa): ≤ 0.5 µg/mL; MIC Ec (E. coli ATCC 25922; Table 18, Ec): ≤ 0.5 µg/mL
8 | CNc1cccc2c1[nH]c1nc(Oc3cncnc3)cc(N3CCC(C(N)=O)C3)c12 (stereo not shown) [Compound 3.17] | – | – | 2 µg/mL (≈ 4.96 µM) | > 16 µg/mL | –
9 | CNc1cc(F)cc2c1[nH]c1nc(Oc3cnc(C)nc3)nc(N3CC4CCC4(N)C3)c12 (stereo not shown) [Compound 10.65] | – | – | – | – | MIC Sa (S. aureus ATCC 13709; Table 18, Sa): ≤ 0.5 µg/mL; MIC Ec (E. coli ATCC 25922; Table 18, Ec): ≤ 0.5 µg/mL
10 | CNc1cc(F)cc2c1[nH]c1nc(Sc3nncs3)nc(N3C[C@H]4C[C@@H]3C[C@H]4N)c12 [Compound 10.11] | – | – | – | – | MIC Sa (S. aureus ATCC 13709; Table 18, Sa): ≤ 0.5 µg/mL; MIC Ec (E. coli ATCC 25922; Table 18, Ec): ≤ 0.5 µg/mL
11 | CNc1cccc2c1[nH]c1nc(Oc3cncc(F)c3)cc(N3CC4C(N)C4C3)c12 (stereo not shown) [Compound 3.33] | – | – | ≤ 0.5 µg/mL | 1 µg/mL (≈ 2.47 µM) | –
12 | CNc1cccc2c1[nH]c1nc(Oc3cncnc3)cc(N3CC4(CCNC4)C3)c12 [Compound 3.67] | – | – | 16 µg/mL (≈ 39.9 µM) | 64 µg/mL (≈ 159 µM) | –
13 | CNc1cc(F)cc2c1[nH]c1nc(Oc3cnc(C)nc3)nc(N3CC(N)C(C(=O)O)C3)c12 (stereo not shown) | – | – | – | – | MIC (S. aureus ATCC 13709; [5]): > 16 µg/mL; MIC (E. coli ATCC 25922; [6]): > 16 µg/mL
14 | CNc1cc(F)c(F)c2c1[nH]c1nc(Oc3cnc(C(C)O)nc3)nc(N3CC4(CCCC4N)C3)c12 (stereo not shown) [Compound 10.103] | – | – | – | – | MIC Sa (S. aureus ATCC 13709; Table 18, Sa): ≤ 0.5 µg/mL; MIC Ec (E. coli ATCC 25922; Table 18, Ec): ≤ 0.5 µg/mL
15 | CNc1ncc(Oc2nc(N3C[C@H](N)C4(CC4)C3)c3c(n2)[nH]c2c(NC)cc(F)cc23)cn1 [Compound 4.216] | ≤0.5 µg/mL | ≤0.5 µg/mL | – | – | –
16 | CNc1cc(F)cc2c1[nH]c1nc(Oc3cncc(F)c3)nc(N3CC(N)C4(CC4)C3)c12 (stereo not shown) [Compound 4.056] | ≤0.5 µg/mL | ≤0.5 µg/mL | – | – | –
17 | CNc1cccc2c1[nH]c1nc(Sc3cnc4cccnc4c3)nc(N3CC(N)C3)c12 [Compound 1.29] | – | – | 1 µg/mL (≈ 2.33 µM) | > 64 µg/mL | –
18 | CNc1cc(F)cc2c1[nH]c1nc(Oc3cnc(C)nc3)nc(N3CCC(N)(CCC#N)C3)c12 (stereo not shown) [Compound 10.75] | – | – | – | – | MIC Sa (S. aureus ATCC 13709; Table 18, Sa): ≤ 0.5 µg/mL; MIC Ec (E. coli ATCC 25922; Table 18, Ec): 1 µg/mL (≈ 2.17 µM)
19 | CNc1cc(F)cc2c1[nH]c1nc(Oc3cncnc3)nc(N3CC4CCC(N)C4C3)c12 (stereo not shown) [Compound 4.016] | ≤0.5 µg/mL | 1 µg/mL (≈ 2.3 µM) | – | – | –
20 | CNc1cc(F)cc2c1[nH]c1nc(Oc3cnc(C#N)c(C)c3)nc(N3CC4(CCC4N)C3)c12 (stereo not shown) [Compound 4.326] | ≤0.5 µg/mL | ≤0.5 µg/mL | – | – | –
21 | CNc1cc(F)cc2c1[nH]c1nc(Oc3cncc(C#N)c3)nc(N3CC4CC(N)C4C3)c12 (stereo not shown) [Compound 4.053] | ≤0.5 µg/mL | ≤0.5 µg/mL | – | – | –
22 | Cc1ncc(Oc2nc(N3CC(N)C4(CC4)C3)c3c(n2)[nH]c2c(N)cc(F)cc23)cn1 (stereo not shown) [Compound 2.9] | 16 µg/mL (≈ 38.1 µM) | 16 µg/mL (≈ 38.1 µM) | – | – | –
23 | CNc1cc(F)cc2c1[nH]c1nc(Oc3cncnc3)nc(N3CC4C(CN)C4C3)c12 (stereo not shown) [Compound 4.004] | ≤0.5 µg/mL | 2 µg/mL (≈ 4.76 µM) | – | – | –
24 | CNc1cc(F)cc2c1[nH]c1nc(Oc3cnc(C)nc3)nc(N3CCC(N)(C(F)(F)F)C3)c12 (stereo not shown) | – | – | – | – | MIC (S. aureus ATCC 13709; [5]): ≤ 0.5 µg/mL; MIC (E. coli ATCC 25922; [6]): 1 µg/mL (≈ 2.1 µM)
25 | CNc1cccc2c1[nH]c1nc(Sc3cnc4cccnc4c3)nc(N3CCC(C(O)c4cccs4)CC3)c12 (stereo not shown) [Compound 1.70] | – | – | 1 µg/mL (≈ 1.81 µM) | > 32 µg/mL | –
26 | CNc1cccc2c1[nH]c1nc(Oc3cncc(F)c3)cc(N3CC[C@@H](N)C3)c12 [Compound 3.6] | – | – | 0.5 µg/mL (≈ 1.27 µM) | 1 µg/mL (≈ 2.55 µM) | –
27 | CNc1cc(F)c2c3c1[nH]c1nc(Oc4cnc(C)nc4)nc(c13)-c1ccc(Cl)cc1NC2 | – | – | – | – | SA MIC (S. aureus ATCC 13709; Table 12, Z is C and connected to R4): ≤ 0.5 µg/mL; EC8 MIC (E. coli ATCC 25922; Table 12, Z is C and connected to R4, EC8 not defined): 4 µg/mL
28 | CNc1cc(F)c(F)c2c1[nH]c1nc(Oc3cnc(CO)nc3)nc(N3C[C@H]4C[C@@H]3C[C@H]4N)c12 [Compound 5.14] | – | – | ≤ 0.5 µg/mL | ≤ 0.5 µg/mL | –
29 | CNc1cccc2c1[nH]c1nc(Oc3cncnc3)cc(N3C[C@@H](NC)C4(CC4)C3)c12 [Compound 3.46] | – | – | 2 µg/mL (≈ 4.81 µM) | 4 µg/mL (≈ 9.63 µM) | –

Source: patent publication US10865216B2, “Tricyclic Gyrase inhibitors” (MERCK SHARP & DOHME CORP., priority 2012, dated 2020)
